Assay: mn = molality of the nth substance listed, in mol/kg
Details: Liquid, Vibrating tube method

[Cl-].[Li+] [lithium chloride] + CCO
mass density [kg/m3]
Details | 323.15 K | 348.15 K
140 kPa, m1 = 0.1049 | – | 743.86
150 kPa, m1 = 2.022 | – | 803.25
170 kPa, m1 = 0.3023 | – | 751.06
420 kPa, m1 = 1.222 | – | 780.84
540 kPa, m1 = 2.88 | – | 825.55
740 kPa, m1 = 0.5873 | – | 761.48
4960 kPa, m1 = 2.022 | – | 808.25
5060 kPa, m1 = 0.3023 | – | 756.68
5060 kPa, m1 = 0.5873 | – | 766.32
5060 kPa, m1 = 1.222 | – | 785.85
5080 kPa, m1 = 0.1049 | – | 749.63
5140 kPa, m1 = 2.88 | – | 829.96
10030 kPa, m1 = 2.022 | – | 813.19
10050 kPa, m1 = 0.5873 | 793.02 | –
10060 kPa, m1 = 0.1049 | – | 755.18
10070 kPa, m1 = 0.3023 | – | 762.15
10080 kPa, m1 = 2.022 | 833.25 | –
10080 kPa, m1 = 2.88 | 854.11 | 834.46
10200 kPa, m1 = 1.222 | 811.76 | –
10210 kPa, m1 = 1.222 | – | 791.09
10230 kPa, m1 = 0.3023 | 784 | –
10530 kPa, m1 = 0.5873 | – | 772.13
14960 kPa, m1 = 2.022 | – | 817.67
15060 kPa, m1 = 0.3023 | 788.31 | –
15060 kPa, m1 = 2.88 | – | 838.73
15120 kPa, m1 = 0.3023 | – | 767.36
15230 kPa, m1 = 2.022 | 837.42 | –
15240 kPa, m1 = 2.88 | 858.04 | –
15280 kPa, m1 = 1.222 | – | 795.92
15290 kPa, m1 = 0.5873 | – | 776.89
15290 kPa, m1 = 1.222 | 816.02 | –
15320 kPa, m1 = 0.1049 | 781.93 | –
15410 kPa, m1 = 0.1049 | – | 760.81
15620 kPa, m1 = 0.5873 | 797.87 | –
20030 kPa, m1 = 2.022 | – | 821.94
20040 kPa, m1 = 0.1049 | 786.01 | –
20060 kPa, m1 = 0.1049 | – | 765.44
20060 kPa, m1 = 2.88 | 861.48 | –
20070 kPa, m1 = 2.88 | – | 842.77
20150 kPa, m1 = 1.222 | 819.88 | –
20410 kPa, m1 = 2.022 | 841.36 | –
20450 kPa, m1 = 0.3023 | 792.88 | –
20470 kPa, m1 = 0.5873 | 801.87 | –
25040 kPa, m1 = 0.3023 | 796.57 | –
25060 kPa, m1 = 0.1049 | 790.15 | –
25060 kPa, m1 = 1.222 | 823.57 | –
25140 kPa, m1 = 0.5873 | 805.52 | –
25300 kPa, m1 = 2.88 | 864.98 | –
25310 kPa, m1 = 2.022 | 844.84 | –
30010 kPa, m1 = 2.022 | 847.97 | –
30060 kPa, m1 = 0.3023 | 800.4 | –
30060 kPa, m1 = 0.5873 | 809.15 | –
30070 kPa, m1 = 2.88 | 867.94 | –
30150 kPa, m1 = 0.1049 | 794.13 | –
30420 kPa, m1 = 1.222 | 827.32 | –
35020 kPa, m1 = 0.3023 | 803.97 | –
35210 kPa, m1 = 2.88 | 870.9 | –
35220 kPa, m1 = 0.5873 | 812.74 | –
35410 kPa, m1 = 1.222 | 830.59 | –
35420 kPa, m1 = 2.022 | 851.3 | –
35610 kPa, m1 = 0.1049 | 798.15 | –
39860 kPa, m1 = 2.88 | 873.36 | –
39940 kPa, m1 = 0.1049 | 801.15 | –
39960 kPa, m1 = 1.222 | 833.36 | –
39970 kPa, m1 = 0.5873 | 815.82 | –
39970 kPa, m1 = 2.022 | 853.89 | –
39980 kPa, m1 = 0.3023 | 807.32 | –
